{"source": "patent US20190202885A1", "about": "“TauT (taurine transporter) peptide cancer vaccine” (priority 2017, published 2019)", "key": {"p53^−/− mice": {"test_system": "p53^−/− mice", "assay": "TauT-peptide vaccination of p53−/− mice: tumor development and lifespan", "type": "in vivo"}, "p53^+/− mice": {"test_system": "p53^+/− mice", "assay": "TauT-peptide vaccination of p53+/− mice: tumor development and lifespan", "type": "in vivo", "protocol": "FIG. 2A and FIG. 2B. TauT-peptide vaccination prolongs p53^+/− mice lifespan. To evaluate the efficacy of TauT-peptide as a cancer vaccine, p53^+/− (C57BL/6J background) were injected with either TauT-peptide (100 μg/kg) or vehicle only at the age of 4 weeks and boosted 2 weeks later (n=15 for each group). All mice were observed daily for signs of morbidity and the development of tumors. The p53^+/− control mice started to develop tumor (mainly osteosarcoma) at the age of 186 day (FIG. 2A). The median lifespan for p53^+/− control mice was 315 days (FIG. 2B), which consistent with other studies. […] TauT-peptide vaccination delayed tumor develops in all vaccinated p53^+/− mice, which started to develop tumor (mainly osteosarcoma) and died at the age of 526 days (FIG. 2A).\nTauT-peptide (SEQ ID NO 3) was coupled to KLH with a kit (Imject SuperCarrier EDC system for Peptides; Pierce). To test TauT-peptide vaccine, p53 knockout (KO) mice were immunized with 100 μg/kg and boosted with an equal amount of antigen 2 weeks late. To develop and test TauT-Ab, wild type control mice were immunized with 100 μg/kg TauT-peptide and boosted with an equal amount of antigen 2 weeks late. Mice were bled on Days 21 and 36 to measure the antibody response. Antisera were collected on Day 49 and purified by affinity column chromatography (Pierce). Antisera were stored at −80° C. Specificity of the antibody was determined by Western blot analysis (10)."}, "[1]": {"details": "p53−/− mice, 100 μg/kg at 4 weeks of age, boosted 2 weeks later"}, "[2]": {"details": "p53−/− mice, 100 μg/kg at 4 weeks of age, boosted 2 weeks later, n=12"}, "[3]": {"details": "p53+/− mice, 100 μg/kg at 4 weeks of age, boosted 2 weeks later, n=15"}}, "note": "Where no end group is shown, it is not given here."}
{"substance": "TauT-peptide vaccine: TauT-peptide (SEQ ID NO 3) comprising amino acid residues 313-326 of TauT (SLC6A6), coupled to KLH, used as peptide vaccine (GSYNKYKYNSYRDC; also: coupled to KLH carrier, site not given here)", "values": [{"measurement": "response to the vaccine", "setting": "p53^−/− mice; p53−/− mice vaccinated", "result": 100, "unit": "%"}, {"measurement": "age at which mice started to develop tumor (mainly lymphoma) and died", "setting": "p53^−/− mice; [1]", "result": 6.3, "unit": "months"}, {"measurement": "lifespan", "setting": "p53^−/− mice; [1]", "result": 6.9, "unit": "months"}, {"measurement": "age at which mice started to develop tumor (mainly lymphoma)", "setting": "p53^−/− mice; [2]", "result": 189, "unit": "days"}, {"measurement": "median lifespan", "setting": "p53^−/− mice; [2]", "result": 207, "unit": "days"}, {"measurement": "increase of (median) lifespan versus control", "setting": "p53^−/− mice; p53−/− mice, vaccinated vs vehicle control", "result": 1.5, "unit": "fold"}, {"measurement": "response to the vaccine", "setting": "p53^+/− mice; p53+/− mice vaccinated", "result": 100, "unit": "%"}, {"measurement": "age at which mice started to develop tumor (mainly osteosarcoma) and died", "setting": "p53^+/− mice; [3]", "result": 526, "unit": "days"}, {"measurement": "median lifespan", "setting": "p53^+/− mice; [3]", "result": 621, "unit": "days"}]}
